Structures are written as SMILES.

One may read the IC50 as the concentration at which inhibition is half-maximal.

The test system of experiment [1] is Notch1. The experiment is described as follows: Notch inhibition assay with soluble antagonists and WT DLL4 coated plates (CHO-K1 N1-Gal4). The format is cell-based. The note with it: comparison with DAPT and BB-94, plates coated with 50 nM WT DLL4; FIG. 4B; read-out: IC50 for inhibition of Notch1 activation. The method, then:
For CHO-K1 N1-Gal4 reporter cells, on day one, biotinylated WT DLL4 was pre-coated in 96-well plates at 50 nM following the same protocol described above. Next, CHO-K1 N1-Gal4 cells were detached with trypsin-EDTA, washed, and diluted at 200,000 cells/mL in α-MEM media. Ten-fold serial dilutions of non-biotinylated DLL4 ligands (N-EGF5) were prepared in DPBS starting at 600 nM. Next, soluble inhibitors were mixed in ratio 1:1 with CHO-K1 N1-Gal4 200,000 cells/mL stocks for 15 min at room temperature to pre-block Notch receptors. Two hundred microliters of inhibition reactions containing 20,000 reporter cells were added to WT DLL4-coated wells, and plates incubated for 24 hours at 37° C. and 5% CO2. When DAPT (gamma-secretase inhibitor, Sigma) and BB-94 (ADAM metalloprotease inhibitor, Sigma) were used, stock solutions were prepared at 100 μM in 8% DMSO. Appropriate DMSO controls were included to test Notch activation and cell viability. Final DMSO concentration in the experiment was kept below 1%. […] On day two, assay plates were washed with 200 μL of DPBS, CHO-K1 N1-Gal4 cells detached with trypsin-EDTA, quenched with 200 μL of α-MEM media, and Notch activation measured by flow cytometry (BD Accuri C6 Plus). […]

Experiment [2] relates to Notch1. The experiment is described as follows: Notch inhibition assay in co-culture format (CHO-K1 N1-Gal4 with HEK293T expressing WT DLL4). The note with it: co-culture 1:1 with HEK293T expressing WT DLL4; read-out: IC50 for inhibition of Notch1 activation by cellular DLL4. The format is cell-based. The method, then:
For inhibition of CHO-K1 N1-Gal4 cells with DAPT and Delta^MAX, the experiment was set-up following the protocol described above with the exception that CHO-K1 N1-Gal4 reporters were incubated with HEK293T-expressing WT DLL4 for Notch activation. Three-fold serial dilutions of soluble Delta^MAX and DAPT were prepared in DPBS starting at 6,000 nM. For DAPT, a stock solution of 100 μM in 8% DMSO was prepared before serial dilutions in DPBS. Appropriate DMSO controls were also assayed for cytotoxicity. Final DMSO concentration in the wells was maintained below 1%. Thirty thousand signal senders and pre-blocked signal receivers (100 μL each) were incubated for 24 hours at 37° C. and 5% CO2 before analysis by flow cytometry. Maximum Notch activation (100%) was set in the absence of soluble inhibitors and normalized to wells containing CHO-K1 N1-Gal4 cells and HEK293T lacking expression of WT DLL4. Mean fluorescence intensity is represented as percentage relative to Notch activation in the absence of inhibitors±s.d. of three independent biological replicates.

As to `CNC(=O)[C@H](Cc1ccccc1)NC(=O)[C@H](CC(C)C)[C@H](CSc1cccs1)C(=O)NO` [BB-94, reference compound], the IC50 in the experiment on Notch1 [1] is 1000 nM.
For `C[C@H](NC(=O)Cc1cc(F)cc(F)c1)C(=O)N[C@H](C(=O)OC(C)(C)C)c1ccccc1` [DAPT, reference compound], the figures for the IC50 in the experiment on Notch1 [1] and in the experiment on Notch1 [2] were 40 nM and 100 nM, respectively.
